Holding throughout (format): cell-based
Data set [1] concerns Acinetobacter baumannii 872842. The conditions noted are these: 872842. Put shortly:
(§1)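 CLSI broth microdilution: inoculum ~10^6 CFU/mL in cation-adjusted Mueller-Hinton II broth, with peptide in serial two-fold dilutions plus Polysorbate 80 (0.002% final). MIC (μg/mL) is the lowest concentration without visible growth after 18-20 hours at 35° C.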

For data set [2], the system named is Acinetobacter baumannii DSM 30008. The conditions noted are these: DSM 30008. Put shortly:
as §1

Data set [3] has as its system Enterobacter cloacae 848840. The note with it: 848840. In short, it runs like this:
as §1

The subject of the next data set is Escherichia coli 926415. The conditions noted are these: 926415. Put shortly: as §1
Data set [4] relates to Escherichia coli ATCC 25922. The note with it: ATCC 25922. In short, it runs like this: as §1
Data set [5] deals with Klebsiella pneumoniae 968733. The conditions noted are these: 968733. Put shortly: as §1
Data set [6] has as its system Klebsiella pneumoniae SSI #3010. The note with it: SSI #3010. Put shortly:
as §1

The test system of data set [7] is Pseudomonas aeruginosa ATCC 27853. The conditions noted are these: ATCC 27853. In short, it runs like this:
as §1

Data set [8] concerns human red blood cells (hRBC). As to the kind of experiment: Hemolysis. The note with it: red cells of human, 1 h, 200. In short, it runs like this:
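Washed fresh hRBC (20% v/v) were incubated with peptides at 200 μg/mL for 1 h at 37° C with shaking at 300 rpm. Supernatant OD540 was read after centrifugation and dilution, blank-corrected, and expressed as percent of the 2% Triton X-100 (100% lysis) control; PBS with 10% water gave 0%.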

The values below come from patent US11629171B2, “Beta-hairpin peptidomimetics” (POLYPHOR AG, priority 2017, dated 2023).

Converted amounts (≈) assume the structure as drawn. Where a SMILES comes first, the peptide text is derived from it. Bridges are numbered along the chain shown (N, C = ends). Roman numbers before positions name the chains, in order. [ ]: non-standard residue; d: D form. dDab = NCC[C@@H](N)C(=O)O; Orn = NCCC[C@H](N)C(=O)O; Dab = NCC[C@H](N)C(=O)O; Abu = CC[C@H](N)C(=O)O; Dap = NC[C@H](N)C(=O)O

For the compound `CC(=O)N[C@H](C(=O)N[C@H]1CSSC[C@@H](C(=O)N[C@@H](CO)C(N)=O)NC(=O)[C@H](C(C)C)NC(=O)[C@H](CO)NC(=O)[C@H](Cc2c[nH]c3ccccc23)NC(=O)[C@H](CCC(=O)N[C@@H](CCN)C(=O)N[C@H](C(=O)N[C@@H](CN)C(=O)N[C@H]2CCNC(=O)[C@H]([C@@H](C)O)NC(=O)[C@H](CCN)NC(=O)[C@H](CCN)NC(=O)[C@H](CC(C)C)NC(=O)[C@@H](CC(C)C)NC(=O)[C@H](CCN)NC2=O)[C@@H](C)O)NC(=O)[C@@H](CCN)NC(=O)CNC(=O)[C@H](CCN)NC(=O)[C@H](Cc2ccc(O)cc2)NC1=O)C(C)C` [Ex. 360] (I: Ac-VCY[Dab]G[dDab]EWSVCS-NH2 / II: [Dab]T[Dap][Dab][Dab][dL]L[Dab][Dab]T; disulfide I:2-I:11; amide I:7-II:N; lactam II:4-II:C), the MIC in data set [1] was determined as 0.125 µg/mL (≈ 0.0528 µM); in [3] it was 0.125 µg/mL (≈ 0.0528 µM); against Escherichia coli 926415, 0.25 µg/mL (≈ 0.106 µM); in data set [5] it was 0.5 µg/mL (≈ 0.211 µM). In addition, the “Acinetobacter baumannii DSM 30008 MIC” value in data set [2] turned out to be 0.0625 µg/mL. The “Escherichia coli ATCC 25922 MIC” value in data set [4] worked out at 0.0625 µg/mL. The “Klebsiella pneumoniae SSI #3010 MIC” value in data set [6] is 0.0625 µg/mL. Further, in data set [7], the “Pseudomonas aeruginosa ATCC 27853 MIC” value was 0.125 µg/mL. Moreover, in data set [8], the “Hemolysis at 200 μg/mL” value was determined as 2%.
Consider `CC(=O)N[C@H](C(=O)N[C@H]1CSSC[C@@H](C(=O)N[C@@H](CO)C(N)=O)NC(=O)[C@H](C(C)C)NC(=O)[C@H](CO)NC(=O)[C@H](Cc2c[nH]c3ccccc23)NC(=O)[C@@H](CCC(=O)N[C@@H](CCN)C(=O)N[C@H](C(=O)N[C@@H](CN)C(=O)N[C@H]2CCNC(=O)[C@H]([C@@H](C)O)NC(=O)[C@H](CCN)NC(=O)[C@H](CCN)NC(=O)[C@H](CC(C)C)NC(=O)[C@@H](CC(C)C)NC(=O)[C@H](CCN)NC2=O)[C@@H](C)O)NC(=O)[C@@H](CCN)NC(=O)[C@H](CCCN)NC(=O)[C@H](CO)NC(=O)[C@H](Cc2ccc(O)cc2)NC1=O)C(C)C` [Ex. 366] (I: Ac-VCYS[Orn][dDab][dE]WSVCS-NH2 / II: [Dab]T[Dap][Dab][Dab][dL]L[Dab][Dab]T; disulfide I:2-I:11; amide I:7-II:N; lactam II:4-II:C), for which the minimal inhibitory concentration (MIC) in [1] came out at 0.5 µg/mL (≈ 0.207 µM); in data set [3] it was 8 µg/mL (≈ 3.32 µM); with Escherichia coli 926415, 0.5 µg/mL (≈ 0.207 µM); in data set [5], 2 µg/mL (≈ 0.829 µM). The “Acinetobacter baumannii DSM 30008 MIC” value in data set [2] turned out to be 0.25 µg/mL. Further, the “Escherichia coli ATCC 25922 MIC” value in data set [4] came out at 0.125 µg/mL. Also, in data set [6], the “Klebsiella pneumoniae SSI #3010 MIC” value is 0.25 µg/mL. Further, in data set [7], the “Pseudomonas aeruginosa ATCC 27853 MIC” value is 0.25 µg/mL. Besides, in data set [8], the “Hemolysis at 200 μg/mL” value is given as 4%.
`CC(=O)N[C@H](C(=O)N[C@H]1CSSC[C@@H](C(=O)N[C@@H](C)C(=O)N[C@@H](CO)C(N)=O)NC(=O)[C@H](C(C)C)NC(=O)[C@H](CO)NC(=O)[C@H](Cc2c[nH]c3ccccc23)NC(=O)[C@H](CO)NC(=O)[C@@H](CCN)NC(=O)[C@H](CCC(=O)N[C@@H](CCN)C(=O)N[C@H](C(=O)N[C@@H](CN)C(=O)N[C@H]2CCNC(=O)[C@H]([C@@H](C)O)NC(=O)[C@H](CCN)NC(=O)[C@H](CCN)NC(=O)[C@H](CC(C)C)NC(=O)[C@@H](CC(C)C)NC(=O)[C@H](CCN)NC2=O)[C@@H](C)O)NC(=O)[C@H](CCN)NC(=O)[C@H](Cc2ccc(O)cc2)NC1=O)C(C)C` [Ex. 367] (I: Ac-VCY[Dab]E[dDab]SWSVCAS-NH2 / II: [Dab]T[Dap][Dab][Dab][dL]L[Dab][Dab]T; disulfide I:2-I:11; amide I:5-II:N; lactam II:4-II:C): the MIC in data set [1] turned out to be 0.03125 µg/mL (≈ 0.0127 µM); in data set [3] it was 0.0625 µg/mL (≈ 0.0253 µM); with Escherichia coli 926415 it was 0.0625 µg/mL (≈ 0.0253 µM); in data set [5], 0.0625 µg/mL (≈ 0.0253 µM). For the same compound, the “Acinetobacter baumannii DSM 30008 MIC” value in [2] was 0.007813 µg/mL. Besides, in data set [4], the “Escherichia coli ATCC 25922 MIC” value is 0.01562 µg/mL. Besides, the “Klebsiella pneumoniae SSI #3010 MIC” value in data set [6] worked out at 0.03125 µg/mL. The “Pseudomonas aeruginosa ATCC 27853 MIC” value in data set [7] worked out at 0.0625 µg/mL. In addition, in [8], the “Hemolysis at 200 μg/mL” value was under 1%.
Consider `CC(=O)N[C@H](C(=O)N[C@H]1CSSC[C@@H](C(=O)N[C@@H](C)C(=O)N[C@@H](C(N)=O)[C@H](C)O)NC(=O)[C@H](C(C)C)NC(=O)[C@H](CO)NC(=O)[C@H](Cc2c[nH]c3ccccc23)NC(=O)[C@H](CO)NC(=O)[C@@H](CCN)NC(=O)[C@H](CCC(=O)N[C@@H](CCN)C(=O)N[C@H](C(=O)N[C@@H](CN)C(=O)N[C@H]2CCNC(=O)[C@H]([C@@H](C)O)NC(=O)[C@H](CCN)NC(=O)[C@H](CCN)NC(=O)[C@H](CC(C)C)NC(=O)[C@@H](CC(C)C)NC(=O)[C@H](CCN)NC2=O)[C@@H](C)O)NC(=O)[C@H](CCN)NC(=O)[C@H](Cc2ccc(O)cc2)NC1=O)C(C)C` [Ex. 368] (I: Ac-VCY[Dab]E[dDab]SWSVCA[dT]-NH2 / II: [Dab]T[Dap][Dab][Dab][dL]L[Dab][Dab]T; disulfide I:2-I:11; amide I:5-II:N; lactam II:4-II:C), for which the MIC in [1] amounted to 0.03125 µg/mL (≈ 0.0126 µM); in data set [3], 0.03125 µg/mL (≈ 0.0126 µM); against Escherichia coli 926415, 0.01562 µg/mL (≈ 0.00629 µM); in data set [5], 0.0625 µg/mL (≈ 0.0252 µM). Besides, the “Acinetobacter baumannii DSM 30008 MIC” value in [2] turned out to be 0.007813 µg/mL. For the same compound, the “Escherichia coli ATCC 25922 MIC” value in [4] is 0.01562 µg/mL. Moreover, the “Klebsiella pneumoniae SSI #3010 MIC” value in data set [6] worked out at 0.03125 µg/mL. Besides, the “Pseudomonas aeruginosa ATCC 27853 MIC” value in data set [7] was determined as 0.0625 µg/mL. The “Hemolysis at 200 μg/mL” value in [8] was 1%.
Turning to `CC[C@@H]1NC(=O)[C@@H](CC(C)C)NC(=O)[C@H](CCN)NC(=O)[C@@H](NC(=O)[C@H](CN)NC(=O)[C@@H](NC(=O)[C@H](CCN)NC(=O)CC[C@@H]2NC(=O)[C@H](CCN)NC(=O)[C@H](Cc3ccc(O)cc3)NC(=O)[C@@H](NC(=O)[C@@H](NC(C)=O)C(C)C)CSSC[C@@H](C(=O)N[C@@H](C)C(=O)N[C@H](CO)C(N)=O)NC(=O)[C@H]([C@@H](C)CC)NC(=O)[C@H](CO)NC(=O)[C@H](Cc3c[nH]c4ccccc34)NC(=O)[C@H](CO)NC(=O)[C@@H](CCN)NC2=O)[C@@H](C)O)CCNC(=O)[C@H]([C@@H](C)O)NC(=O)[C@H](CCN)NC(=O)[C@H](CCN)NC1=O` [Ex. 369] (I: Ac-VCY[Dab]E[dDab]SWSICA[dS]-NH2 / II: [Dab]T[Dap][Dab][Dab][dL][Abu][Dab][Dab]T; disulfide I:2-I:11; amide I:5-II:N; lactam II:4-II:C), the minimum inhibitory concentration (MIC) was found to be 0.03125 µg/mL (≈ 0.0127 µM) in data set [1], 0.03125 µg/mL (≈ 0.0127 µM) in data set [3], 0.0625 µg/mL (≈ 0.0254 µM) with Escherichia coli 926415 and 0.0625 µg/mL (≈ 0.0254 µM) in data set [5]. In addition, the “Acinetobacter baumannii DSM 30008 MIC” value in data set [2] came to 0.007813 µg/mL. Besides, the “Escherichia coli ATCC 25922 MIC” value in data set [4] was 0.01562 µg/mL. The “Klebsiella pneumoniae SSI #3010 MIC” value in [6] stood at 0.03125 µg/mL. Besides, the “Pseudomonas aeruginosa ATCC 27853 MIC” value in [7] is 0.0625 µg/mL. The “Hemolysis at 200 μg/mL” value in data set [8] was under 1%.
`CC(=O)N[C@H](C(=O)N[C@H]1CSSC[C@@H](C(=O)N[C@@H](CO)C(=O)N[C@@H](CC(=O)O)C(N)=O)NC(=O)[C@H](C(C)C)NC(=O)[C@H](CO)NC(=O)[C@H](Cc2c[nH]c3ccccc23)NC(=O)[C@H](CCN)NC(=O)[C@@H](CCN)NC(=O)[C@H](CCC(=O)N[C@@H](CCN)C(=O)N[C@H](C(=O)N[C@@H](CN)C(=O)N[C@H]2CCNC(=O)[C@H]([C@@H](C)O)NC(=O)[C@H](CCN)NC(=O)[C@H](CCN)NC(=O)[C@H](CC(C)C)NC(=O)[C@@H](CC(C)C)NC(=O)[C@H](CCN)NC2=O)[C@@H](C)O)NC(=O)[C@H](CO)NC(=O)[C@H](Cc2ccc(O)cc2)NC1=O)C(C)C` [Ex. 371] (I: Ac-VCYSE[dDab][Dab]WSVCSD-NH2 / II: [Dab]T[Dap][Dab][Dab][dL]L[Dab][Dab]T; disulfide I:2-I:11; amide I:5-II:N; lactam II:4-II:C): the MIC in data set [1] stood at 0.0625 µg/mL (≈ 0.0249 µM); in data set [3] it was 0.5 µg/mL (≈ 0.199 µM); in the data set with Escherichia coli 926415 it was 0.25 µg/mL (≈ 0.0994 µM); in [5] it was 0.5 µg/mL (≈ 0.199 µM). The “Acinetobacter baumannii DSM 30008 MIC” value in data set [2] was determined as 0.0625 µg/mL. Besides, the “Escherichia coli ATCC 25922 MIC” value in data set [4] is 0.0625 µg/mL. For the same compound, the “Klebsiella pneumoniae SSI #3010 MIC” value in data set [6] was 0.0625 µg/mL. For the same compound, the “Pseudomonas aeruginosa ATCC 27853 MIC” value in [7] was 0.0625 µg/mL. Besides, in data set [8], the “Hemolysis at 200 μg/mL” value was determined as 0%.
